Patent US12077531B2, “Imidazopyridinone compound” (KISSEI PHARMACEUTICAL CO., LTD., priority 2018, dated 2024)
Where a name gives a salt, the structure may show the parent alone.

What follows are compounds tested against human PHD2184-418 (Homo sapiens (Human), UniProt Q9GZT9) (assay: PHD2 inhibitory test (fluorescence polarization, binding between PHD2 and HIF-1α)). Details: human PHD2184-418, FITC-labeled HIF-1α556-574, 2 μM 2-oxoglutarate, 37° C. 60 minutes.
Experimental: Test Example 1 PHD2 Inhibitory Test
(1) Expression and Preparation of Human PHD2184-418
Human PHD2184-418 containing amino acid residues 184 to 418 of the protein represented by CAC42509 (GenBank accession ID) was expressed and prepared by the following method.
An expression construct of human PHD2184-418 containing N-terminal histidine tag was introduced into pET-30a (+) vector, and the sequence was confirmed. This vector was introduced into BL21 (DE3) strain and cultured at 37° C. in LB medium containing antibiotics. After culturing, a cell lysis solution was added to the cells, and then the cells were disrupted by sonication. The disrupted suspension was centrifuged and the supernatant was purified by Ni column to give human PHD2184-418.
Human HIF-1α556-574 (FITC-labeled HIF-1α556-574), containing N-terminal FITC-Ahx, containing amino acid residues 556 to 574 (partial peptide) of HIF-1α was used as a substrate. Using FITC-labeled HIF-1α556-574, the competitive inhibition between 2-oxoglutarate and test compounds (PHD inhibitor) was evaluated based on the change in fluorescence polarization by the following method.
An enzyme (human PHD2184-418) and the substrate were diluted with an assay buffer (pH 7.4) containing 10 mM HEPES, 150 mM NaCl, 10 μM MnCl2-4H2O, 2 μM 2-oxoglutarate and 0.05% Tween-20. Test compounds were diluted with DMSO. Test compounds and human PHD2184-418 was added to the 384-well plate (Corning, black, opaque bottom) in advance. The reaction was started by the addition of FITC-labeled HIF-1α556-574. After incubating at 37° C. for 60 minutes, fluorescence polarization (excitation wavelength: 470 nm, fluorescence wavelength: 530 nm) was measured by PHERAstar FSX (BMG Labtech). Fluorescence polarization of each well was measured, and human PHD2 binding inhibitory activity of test compounds was calculated based on the value of test compound-free group.

Chain of human PHD2184-418 (Q9GZT9 184-418): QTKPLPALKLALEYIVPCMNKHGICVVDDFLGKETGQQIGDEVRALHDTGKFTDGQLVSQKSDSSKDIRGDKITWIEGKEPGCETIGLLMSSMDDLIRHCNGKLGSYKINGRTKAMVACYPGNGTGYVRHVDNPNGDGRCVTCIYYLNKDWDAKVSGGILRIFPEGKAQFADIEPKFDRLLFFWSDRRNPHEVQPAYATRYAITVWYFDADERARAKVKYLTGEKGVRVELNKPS

Structure (SMILES)	IC50 [nM]
O=C(O)c1ccnc(CN2CC[C@H](n3c(=O)n(-c4ccc(-c5ccc(O)c(C(=O)O)c5)nc4)c4cccnc43)C2)c1 [Example 52, (S)-2-((3-(1-(6-(3-Carboxy-4-hydroxyphenyl)pyridin-3-yl)-2-oxo-1,2-dihydro-3H-imidazo[4,5-b]pyridin-3-yl)pyrrolidin-1-yl)methyl)isonicotinic acid]	280
Cc1ccccc1-c1ccc(-n2c(=O)n([C@H]3CCN(Cc4nccn4C)C3)c3ncccc32)cc1 [Example 29, (S)-3-(1-((1-Methyl-1H-imidazol-2-yl)methyl)pyrrolidin-3-yl)-1-(2′-methyl-[1,1′-biphenyl]-4-yl)-1,3-dihydro-2H-imidazo[4,5-b]pyridin-2-one]	2090
Cn1ccnc1CN1CC[C@@H](n2c(=O)n(-c3ccc(-c4ccccc4)cc3)c3cccnc32)C1 [Example 3, (R)-1-([1,1′-Biphenyl]-4-yl)-3-(1-((1-methyl-1H-imidazol-2-yl)methyl)pyrrolidin-3-yl)-1,3-dihydro-2H-imidazo[4,5-b]pyridin-2-one]	3900
Cc1cc(C(=O)O)ccc1-c1ccc(-n2c(=O)n([C@H]3CCN(Cc4ncc(C(=O)O)n4C)C3)c3ncccc32)cn1 [Example 50, (S)-2-((3-(1-(6-(4-Carboxy-2-methylphenyl)pyridin-3-yl)-2-oxo-1,2-dihydro-3H-imidazo[4,5-b]pyridin-3-yl)pyrrolidin-1-yl)methyl)-1-methyl-1H-imidazole-5-carboxylic acid]	140
O=c1n(-c2ccc(-c3ccccc3)cc2)c2cccnc2n1[C@H]1CCN(Cc2cc(O)ccn2)C1 [Example 10, (S)-1-([1,1′-Biphenyl]-4-yl)-3-(1-((4-hydroxypyridin-2-yl)methyl)pyrrolidin-3-yl)-1,3-dihydro-2H-imidazo[4,5-b]pyridin-2-one]	5490
Cn1ccnc1CN1CC[C@H](n2c(=O)n(-c3ccc(-c4ccc(C(=O)O)cc4O)cc3)c3cccnc32)C1 [Example 44, (S)-2-Hydroxy-4′-(3-(1-((1-methyl-1H-imidazol-2-yl)methyl)pyrrolidin-3-yl)-2-oxo-2,3-dihydro-1H-imidazo[4,5-b]pyridin-1-yl)-[1,1′-biphenyl]-4-carboxylic acid]	970
Cc1cccnc1CN1CC[C@H](n2c(=O)n(-c3ccc(C(=O)NCC(=O)O)cc3)c3cccnc32)C1 [Example 75, (S)-(4-(3-(1-((3-Methylpyridin-2-yl)methyl)pyrrolidin-3-yl)-2-oxo-2,3-dihydro-1H-imidazo[4,5-b]pyridin-1-yl)benzoyl)glycine]	99900
Cn1c(C(=O)O)cnc1CN1CC[C@H](n2c(=O)n(-c3ccc(-c4ccc(NS(C)(=O)=O)cc4)cc3)c3cccnc32)C1 [Example 74, (S)-1-Methyl-2-((3-(1-(4′-(methylsulfonamido)-[1,1′-biphenyl]-4-yl)-2-oxo-1,2-dihydro-3H-imidazo[4,5-b]pyridin-3-yl)pyrrolidin-1-yl)methyl)-1H-imidazole-5-carboxylic acid]	1850
Cn1c(C(=O)O)cnc1CN1CC[C@H](n2c(=O)n(-c3ccc(Cc4ccccc4)cc3)c3cccnc32)C1 [Example 57, (S)-2-((3-(1-(4-Benzylphenyl)-2-oxo-1,2-dihydro-3H-imidazo[4,5-b]pyridin-3-yl)pyrrolidin-1-yl)methyl)-1-methyl-1H-imidazole-5-carboxylic acid]	710
Cn1c(C(=O)O)cnc1CN1CC[C@H](n2c(=O)n(-c3ccc(OC(F)(F)F)cc3)c3cccnc32)C1 [Example 62, (S)-1-Methyl-2-((3-(2-oxo-1-(4-(trifluoromethoxy)phenyl)-1,2-dihydro-3H-imidazo[4,5-b]pyridin-3-yl)pyrrolidin-1-yl)methyl)-1H-imidazole-5-carboxylic acid]	1850
Cc1cccnc1CN1CC[C@H](n2c(=O)n(-c3ccc(-c4ccccc4)cc3)c3cccnc32)C1 [Example 1, (S)-1-([1,1′-Biphenyl]-4-yl)-3-(1-((3-methylpyridin-2-yl)methyl)pyrrolidin-3-yl)-1,3-dihydro-2H-imidazo[4,5-b]pyridin-2-one]	8430
Cn1c(C(=O)O)cnc1CN1CC[C@H](n2c(=O)n(-c3cccc(-c4ccccc4)c3)c3cccnc32)C1 [Example 54, (S)-2-((3-(1-([1,1′-Biphenyl]-3-yl)-2-oxo-1,2-dihydro-3H-imidazo[4,5-b]pyridin-3-yl)pyrrolidin-1-yl)methyl)-1-methyl-1H-imidazole-5-carboxylic acid]	770
Cn1ccnc1CN1CC[C@H](n2c(=O)n(-c3ccc(-c4ccc(O)c(C(=O)O)c4)cc3)c3cccnc32)C1 [Example 42, (S)-4-Hydroxy-4′-(3-(1-((1-methyl-1H-imidazol-2-yl)methyl)pyrrolidin-3-yl)-2-oxo-2,3-dihydro-1H-imidazo[4,5-b]pyridin-1-yl)-[1,1′-biphenyl]-3-carboxylic acid]	320
Cn1c(C(=O)O)cnc1CN1CC[C@H](n2c(=O)n(-c3ccc(-c4ccc(C(=O)O)cc4)cc3)c3cc(C(F)(F)F)cnc32)C1 [Example 26, (S)-2-((3-(1-(4′-Carboxy-[1,1′-biphenyl]-4-yl)-2-oxo-6-(trifluoromethyl)-1,2-dihydro-3H-imidazo[4,5-b]pyridin-3-yl)pyrrolidin-1-yl)methyl)-1-methyl-1H-imidazole-5-carboxylic acid]	130
Cc1cc(-c2ccccc2)ccc1-n1c(=O)n([C@H]2CCN(Cc3nccn3C)C2)c2ncccc21 [Example 28, (S)-3-(1-((1-Methyl-1H-imidazol-2-yl)methyl)pyrrolidin-3-yl)-1-(3-methyl-[1,1′-biphenyl]-4-yl)-1,3-dihydro-2H-imidazo[4,5-b]pyridin-2-one]	28200
Cc1cccnc1CN1CC[C@H](n2c(=O)n(-c3ccc(-c4ccc(O)cc4)cc3)c3cccnc32)C1 [Example 89, (S)-1-(4′-Hydroxy-[1,1′-biphenyl]-4-yl)-3-(1-((3-methylpyridin-2-yl)methyl)pyrrolidin-3-yl)-1,3-dihydro-2H-imidazo[4,5-b]pyridin-2-one]	3170
O=C(O)c1ccnc(CN2CC[C@H](n3c(=O)n(-c4ccc(-c5ccc(O)c(C(=O)O)c5)c(O)c4)c4cccnc43)C2)c1 [Example 51, (S)-2-((3-(1-(3′-Carboxy-2,4′-dihydroxy-[1,1′-biphenyl]-4-yl)-2-oxo-1,2-dihydro-3H-imidazo[4,5-b]pyridin-3-yl)pyrrolidin-1-yl)methyl)isonicotinic acid]	140
COC(=O)c1ccc(-c2ccc(-n3c(=O)n([C@@H]4CCN(Cc5nccn5C)C4)c4ncccc43)c(C)c2)cc1 [Example 38, Methyl (R)-3′-methyl-4′-(3-(1-((1-methyl-1H-imidazol-2-yl)methyl)pyrrolidin-3-yl)-2-oxo-2,3-dihydro-1H-imidazo[4,5-b]pyridin-1-yl)-[1,1′-biphenyl]-4-carboxylate]	4630
Cc1cccnc1CN1CC[C@H](n2c(=O)n(-c3ccc(-c4ccc(OC(F)(F)F)cc4)cc3)c3cccnc32)C1 [Example 35, (S)-3-(1-((3-Methylpyridin-2-yl)methyl)pyrrolidin-3-yl)-1-(4′-(trifluoromethoxy)-[1,1′-biphenyl]-4-yl)-1,3-dihydro-2H-imidazo[4,5-b]pyridin-2-one]	80500
Cc1ccc(-n2c(=O)n([C@H]3CCN(Cc4ncc(C(=O)O)n4C)C3)c3ncccc32)cc1 [Example 58, (S)-1-Methyl-2-((3-(2-oxo-1-(p-tolyl)-1,2-dihydro-3H-imidazo[4,5-b]pyridin-3-yl)pyrrolidin-1-yl)methyl)-1H-imidazole-5-carboxylic acid]	1020
Cn1ccnc1CN1CC[C@H](n2c(=O)n(-c3ccc(-c4ccccc4)cc3)c3ccc(C(=O)O)nc32)C1 [Example 20, (S)-1-([1,1′-Biphenyl]-4-yl)-3-(1-((1-methyl-1H-imidazol-2-yl)methyl)pyrrolidin-3-yl)-2-oxo-2,3-dihydro-1H-imidazo[4,5-b]pyridine-5-carboxylic acid]	6710
O=c1n(-c2ccc(-c3ccccc3)cc2)c2cccnc2n1[C@H]1CCN(Cc2ncc[nH]2)C1 [Example 7, (S)-3-(1-((1H-Imidazol-2-yl)methyl)pyrrolidin-3-yl)-1-([1,1′-biphenyl]-4-yl)-1,3-dihydro-2H-imidazo[4,5-b]pyridin-2-one]	15600

Same assay, conditions: read-out: inhibition rate at the compound concentration of 100 μM (numerals with *); compound concentration 100 μM

Structure (SMILES)	inhibition at 100 µM [%]
O=c1n(-c2ccc(-c3ccccc3)cc2)c2cccnc2n1[C@H]1CCN(Cc2ncccc2O)C1 [Example 8, (S)-1-([1,1′-Biphenyl]-4-yl)-3-(1-((3-hydroxypyridin-2-yl)methyl)pyrrolidin-3-yl)-1,3-dihydro-2H-imidazo[4,5-b]pyridin-2-one]	29
Cc1cccnc1CN1CC[C@H](n2c(=O)n(-c3ccc(C(=O)O)cc3)c3cccnc32)C1 [Example 21, (S)-4-(3-(1-((3-Methylpyridin-2-yl)methyl)pyrrolidin-3-yl)-2-oxo-2,3-dihydro-1H-imidazo[4,5-b]pyridin-1-yl)benzoic acid hydrochloride]	39
